Assay results reported in US5459160A, “Iridoid derivatives and the use thereof as a drug” (Tsumura & Co., priority 1990, dated 1995).

Key:
[1] = tested on: hyperlipemia; test: Anti-hyperlipemia test in rats on high fat food (Experimental Example 1); assay type: in vivo, Male Wistar rats; conditions: peroral once a day, two weeks, control 100, Table 1
Text: Male Wistar rats 6.5 weeks old were allowed to freely intake a high fat food (containing 1% of cholesterol, 0.5% of sodium cholate, 12% of beef tallow and 20% of standard chow) in the cource of two weeks, to thus cause an outbreak of hyperlipemia. The dose of the drug was started simultaneously with the application of the high fat food, and was perorally given once a day through a stomach tube until the end of the experiment. The drugs were all suspended in a cane sugar fatty acid ester and were administered. The oily compounds were adjusted in advance to 100 mg/m.iota. by diethyl ether. A suitable amount was collected at the time of the dose and after diethyl ether was evaporated and removed, it was suspended in a cane sugar fatty acid ester (1% ryoto sugar ester) and then given. After the final dose of the drug, the rats were fasted for about 18 hours, and the blood was sampled to measure the blood serum lipid. The blood serum lipid was measured by using a TBA-380 biochemical analyzer (a product of Toshiba Medical Co.,) unless a particular hindrance occurred.

[2] = tested on: bile secretion; test: Cholagogic action, bile secretion (Experimental Example 5); assay type: in vivo, male Wistar rats; conditions: intraduodenal
Method: After male Wistar rats 7 weeks old were fasted for 24 hours, they were anesthetized by the interperitoneal administration of 1.25 g/kg (volume 2 m.iota./kg) of urethane. A polyethylene canula (SP-10, a product of Natsume Seisakusho) was inserted into a bile duct and after the bile was caused to flow out for 30 minutes, the bile was collected in the cource of 1 hour. Thereafter, each test drug was suspended or dissolved in a 1% aqueous Tween-80 solution, and was administered into the duodenum at a rate of 5 m.iota./kg. Furthermore, the bile was collected every hour in the course of five hours, and its weight was measured. Only a 1% Tween-80 solution was given as a control.
The results are tabulated in Tables 6, 7, 8, 9 and 10, wherein the bile secretion amount every hour was represented by a percentage with the bile secretion amount (mg) one hour before the dose of the test drug being 100.

[3] = tested on: hyperlipemia; test: Anti-hyperlipemia test in rats on high fat food (Experimental Example 4); assay type: in vivo, Male Wistar rats; conditions: peroral once a day, two weeks, control 100, Table 5
Text: Male Wistar rats 6.5 weeks old were allowed to freely intake a high fat food (0.5% cholesterol, 1.0% cholic acid, 20.0% casein, 50.5% cane sugar, 12.0% hardened coconut oil, 4.0% cellulose, 4.0% mineral mixture, 0.5% vitamine mixture, 7.5% white fish meal) in the course of two weeks so as to cause the outbreak of hyperlipemia. The dose of the drug was started simultaneously with the application of the high fat food, and was perorally given once a day through a stomach tube until the end of the experiment. The drugs were all suspended in a cane sugar fatty acid ester and were administered. The oily compounds were adjusted in advance to 100 mg/m.iota. by diethyl ether. A suitable amount was collected at the time of the dose and after diethyl ether was evaporated and removed, it was suspended in a cane sugar fatty acid ester (1% ryoto sugar ester) and was then given. After the final dose of the drug, the rats were fasted for about 18 hours, and the blood was sampled to measure the blood serum lipid. The blood serum lipid was measured by using a TBA-380 bio-chemical analyzer (a product of Toshiba Medical Co.,) unless a particular hindrance occurred.

[4] = tested on: cholesterol synthesis in liver slices; test: Cholesterol synthesis from [1-14C] acetic acid in liver slices (Experimental Example 2); assay type: cell-based, male Wistar rats; conditions: drug final concentration 0.1-1.0 mM, 37° C., 120 minutes; control 100; Table 2
Method: Liver slices (0.5 mm) were prepared from male Wistar rats 5 weeks old acclimated for 10 days in a bright/dark inversion raising chamber (bright period: 8:00 p.m.-8:00 a.m.). […] Incubation was carried out at 37° C. for 120 minutes in 95% oxygen and 5% carbon dioxide. The reaction was stopped by adding 1 m.iota. of 15% potassium hydroxide/ethanol, and saponification was carried out at 80° C. for 2 hours. The sterol fraction was extracted by petroleum ether and was evaporated to driness. Thereafter, 1 m.iota. of acetone/ethanol (1:1) and 1 m.iota. of 0.5% digitonine were added, and the mixture was left standing for a night at room temperature. The precipitate was collected by centrifugal separation and was washed with 2 m.iota. of acetone/ether (1:1). The precipitate was further centrifuged. After the supernatant was discarded, the precipitate was dissolved in methanol and its radioactivity was measured.

[5] = Acute toxicity test; conditions: mouse, in vivo, ip; male S.P.P. mice, abdominally administered; Table 11
Method: The acute toxicity test was carried out by abdominally administering each test drug to male S.P.P. mice and determining an LD50 value.

[6] = 0-1 hour after dose, control 84.1, Table 8
[7] = 1-2 hour after dose, control 72.5, Table 8
[8] = 2-3 hour after dose, control 63.8, Table 8
[9] = 3-4 hour after dose, control 56.7, Table 8
[10] = 4-5 hour after dose, control 51.2, Table 8
[11] = 0-1 hour after dose, control 82.9, Table 10
[12] = 1-2 hour after dose, control 74.1, Table 10
[13] = 2-3 hour after dose, control 66.1, Table 10
[14] = 3-4 hour after dose, control 59.8, Table 10
[15] = 4-5 hour after dose, control 53.3, Table 10

| Structure (SMILES) | Blood serum cholesterol (%) ([1]; 10 mg/kg) | Blood serum triglyceride (%) ([1]; 10 mg/kg) | Blood serum cholesterol (%) ([1]; 30 mg/kg) | Blood serum triglyceride (%) ([1]; 30 mg/kg) | Bile secretion amount, percentage of the hour before dose [2, 6] [%] | Bile secretion amount, percentage of the hour before dose [2, 7] [%] | Bile secretion amount, percentage of the hour before dose [2, 8] [%] | Bile secretion amount, percentage of the hour before dose [2, 9] [%] | Bile secretion amount, percentage of the hour before dose [2, 10] [%] | Blood serum cholesterol (%) ([3]; 10 mg/kg) | Blood serum cholesterol (%) ([3]; 30 mg/kg) | Bile secretion amount, percentage of the hour before dose [2, 11] [%] | Bile secretion amount, percentage of the hour before dose [2, 12] [%] | Bile secretion amount, percentage of the hour before dose [2, 13] [%] | Bile secretion amount, percentage of the hour before dose [2, 14] [%] | Bile secretion amount, percentage of the hour before dose [2, 15] [%] | Relative amount of synthesized cholesterol (%) [4] [%] | LD50 [5] [mg/kg] | other results |
| --- | --- | --- | --- | --- | --- | --- | --- | --- | --- | --- | --- | --- | --- | --- | --- | --- | --- | --- | --- |
| COC(=O)C1=COC(O)[C@H]2[C@@H]1CC[C@@H]2C (stereo partly drawn) [Definite Example 4, methyl (4aS, 7S, 7aR)-1,4a, 5,6,7,7a-hexahydro-1-hydroxy-7-methylcyclopenta[c]pyran-4-carboxylate] | 73.3 | 86.0 | 75.4 | 91.0 | 150.8 | 93.7 | 74.0 | 63.9 | 57.2 | 85.3 | 75.0 | – | – | – | – | – | – | – | Bile secretion amount, percentage of the hour before dose ([2]; 0-1 hour after dose, control 82.9, Table 6): 146.9%; Bile secretion amount, percentage of the hour before dose ([2]; 1-2 hour after dose, control 74.1, Table 6): 97.8%; Bile secretion amount, percentage of the hour before dose ([2]; 2-3 hour after dose, control 66.1, Table 6): 85.4%; Bile secretion amount, percentage of the hour before dose ([2]; 3-4 hour after dose, control 59.8, Table 6): 77.2%; Bile secretion amount, percentage of the hour before dose ([2]; 4-5 hour after dose, control 53.3, Table 6): 71.8% |
| COC(=O)C1=COC(=O)[C@@H]2[C@H](C)CC[C@H]12 [Definite Example 32, methyl (4aS, 7R, 7aR)-1,4a, 5,6,7,7a-hexahydro-7-methyl-1-oxocyclopenta[c]pyran-4-carboxylate] | – | – | – | – | – | – | – | – | – | – | – | 110.7 | 80.6 | 66.2 | 55.6 | 49.6 | 96.2 | – | – |
| COC(=O)C1=COC(O)[C@@H]2C(C)=CC[C@H]12 (stereo partly drawn) [Definite Example 9, methyl (4aS, 7aS)-1,4a, 5,7a-tetrahydro-1-hydroxy-7-methylcyclopenta[c]pyran-4-carboxylate] | 93.6 | 74.5 | 59.3 | 60.0 | 134.5 | 90.9 | 76.5 | 66.7 | 59.4 | 70.8 | 62.8 | – | – | – | – | – | – | 407 | – |
| CC(=O)O[C@@H]1OC=C(CO)[C@H]2CC=C(CO)[C@@H]12 [Definite Example 27, (1S, 4aS, 7aS)-1-acetoxy-4,7-bis(hydroxymethyl)-1,4a, 5,7a-tetrahydrocyclopenta[c]pyran] | – | – | – | – | – | – | – | – | – | – | – | 98.3 | 75.3 | 59.0 | 48.7 | 43.5 | 73.5 | 473 | – |
| COC(=O)C1=CO[C@@H](OC(C)=O)[C@H]2[C@@H]1CC1OCC12OC(C)=O (stereo partly drawn) [Definite Example 30, methyl (iS, 4aS, 7aS)-1,7-diacetoxy-6,7-(epoxymethano)-1,4a, 5,6,7,7a-hexahydrocyclopenta[c]pyran-4-carboxylate] | – | – | – | – | – | – | – | – | – | – | – | 97.9 | 83.1 | 69.7 | 61.0 | 53.9 | 50.1 | 468 | – |
